Test results taken from publication PMC10648852, “Molecular drivers of resistance to sulbactam-durlobactam in contemporary clinical isolates of Acinetobacter baumannii” (Antimicrobial Agents and Chemotherapy, 2023).
Like-named read-outs stand apart in the source and are kept apart here.

Legend:
A. baumannii PBP3 S395F = tested on: A. baumannii PBP3 S395F; design: method as in McLeod et al. (2018); conditions: average ± SD, ref McLeod et al. (2018); cited from earlier work
[1] = tested on: A. baumannii wild-type PBP3; assay: Acylation rate constant (kinact/Ki), fluorescence anisotropy competition with BOCILLIN; conditions: Wildtype PBP3
A. baumannii PBP3 S390T = tested on: A. baumannii PBP3 S390T; design: method as in McLeod et al. (2018); conditions: average ± SD, ref McLeod et al. (2018); cited from earlier work
[2] = tested on: ABC clinical isolates with SUL-DUR MIC > 4 µg/mL; assay: microbe, parasite or virus in culture; assay type: cell-based, Acinetobacter baumannii-calcoaceticus complex
Method in brief: (§1)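 SUL-DUR combines serially twofold-diluted sulbactam with durlobactam held at 4 µg/mL; MICs obtained by CLSI-standard broth microdilution and read against CLSI breakpoints when these exist.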

A. baumannii PBP3 Q488K = assay: Acylation rate constant (kinact/Ki), fluorescence anisotropy competition with BOCILLIN
A. baumannii PBP3 N377Y = assay: as above
[3] = tested on: A. pittii clinical isolates; assay: microbe, parasite or virus in culture; assay type: cell-based; conditions: Acinetobacter pittii
Method in brief: as §1

[4] = tested on: A. baumannii clinical isolates; assay: microbe, parasite or virus in culture; assay type: cell-based; conditions: Acinetobacter baumannii
Method in brief: as §1

[5] = tested on: A. nosocomialis clinical isolate; assay: microbe, parasite or virus in culture; assay type: cell-based; conditions: Acinetobacter nosocomialis, isolate ARC7023 (IHMA 2118812), France, BSI, 2019, read-out: MIC
Method in brief: as §1

A. baumannii PBP3 H370Y = assay: Acylation rate constant (kinact/Ki), fluorescence anisotropy competition with BOCILLIN

C[C@@H](O)[C@H]1C(=O)N2C(C(=O)O)=C(SCCN=CN)C[C@H]12 [imipenem]
106.7%: % WT (A. baumannii PBP3 H370Y)
32 µg/mL: MIC ([4]; isolate ARC6650 (IHMA 1457337), Argentina, RTI, 2016, read-out: MIC) | MIC ([4]; isolate ARC6805 (IHMA 1558650), United States, RTI, 2017, read-out: MIC)
450 ± 60 ([10]) M^-1s^-1: k inact/K i ([1]; average ± SD)
82.2%: % WT (A. baumannii PBP3 Q488K)
100%: % WT [1] | %NS (% non-susceptibility) ([2]; 64 non-clonal ABC isolates, 2023 CLSI breakpoints plus FDA breakpoint of 4 µg/mL for SUL-DUR)
540 ± 40 ([3]) M^-1s^-1: k inact/K i (A. baumannii PBP3 S390T)
62.2%: % WT (A. baumannii PBP3 N377Y)
280 ± 10 ([2]) M^-1s^-1: k inact/K i (A. baumannii PBP3 N377Y; average ± SD)
480 ± 40 ([2]) M^-1s^-1: k inact/K i (A. baumannii PBP3 H370Y; average ± SD)
64 µg/mL: MIC ([3]; isolate ARC7087 (IHMA 2212062), Colombia, BSI, 2020, read-out: MIC) | MIC ([4]; isolate ARC6646 (IHMA 1484127), United States, RTI, 2016, read-out: MIC) | MIC ([4]; isolate ARC6652 (IHMA 1465642), Belgium, RTI, 2016, read-out: MIC) | MIC ([4]; isolate ARC6653 (IHMA 1308777), Vietnam, RTI, 2016, read-out: MIC) | MIC ([4]; isolate ARC6799 (IHMA 1562935), Spain, UTI, 2017, read-out: MIC) | MIC ([4]; isolate ARC6800 (IHMA 1557526), Turkey, RTI, 2017, read-out: MIC) | MIC ([4]; isolate ARC6802 (IHMA 1557073), Spain, UTI, 2017, read-out: MIC) | MIC ([4]; isolate ARC6803 (IHMA 1589408), Belgium, UTI, 2017, read-out: MIC) | MIC ([4]; isolate ARC6808 (IHMA 1557168), Spain, RTI, 2017, read-out: MIC) | MIC ([4]; isolate ARC6812 (IHMA 1699530), Guatemala, RTI, 2017, read-out: MIC) | MIC ([4]; isolate ARC6820 (IHMA 1647876), Argentina, RTI, 2017, read-out: MIC) | MIC ([4]; isolate ARC6822 (IHMA 1637626), Guatemala, RTI, 2017, read-out: MIC) | MIC ([4]; isolate ARC6823 (IHMA 1620872), Greece, SSSI, 2017, read-out: MIC) | MIC ([4]; isolate ARC6824 (IHMA 1625487), Argentina, BSI, 2017, read-out: MIC) | MIC ([4]; isolate ARC6937 (IHMA 1562926), Spain, UTI, 2017, read-out: MIC) | MIC ([4]; isolate ARC6953 (IHMA 1909827), Turkey, IAI, 2018, read-out: MIC) | MIC ([4]; isolate ARC6955 (IHMA 1825425), United States, RTI, 2018, read-out: MIC) | MIC ([4]; isolate ARC7014 (IHMA 2045328), Guatemala, IAI, 2019, read-out: MIC) | MIC ([4]; isolate ARC7015 (IHMA 2045327), Guatemala, UTI, 2019, read-out: MIC) | MIC ([4]; isolate ARC7020 (IHMA 2045326), Guatemala, RTI, 2019, read-out: MIC) | MIC ([4]; isolate ARC7021 (IHMA 1966347), Guatemala, RTI, 2019, read-out: MIC) | MIC ([4]; isolate ARC7022 (IHMA 2045319), Guatemala, IAI, 2019, read-out: MIC) | MIC ([4]; isolate ARC7024 (IHMA 2059448), Turkey, RTI, 2019, read-out: MIC) | MIC ([4]; isolate ARC7025 (IHMA 2002121), Spain, RTI, 2019, read-out: MIC) | MIC ([4]; isolate ARC7083 (IHMA 2163687), United States, RTI, 2020, read-out: MIC) | MIC ([4]; isolate ARC7089 (IHMA 2240345), Argentina, BSI, 2020, read-out: MIC) | MIC ([4]; isolate ARC7094 (IHMA 2296423), Turkey, RTI, 2020, read-out: MIC) | MIC ([4]; isolate ARC7095 (IHMA 2320843), Turkey, BSI, 2020, read-out: MIC) | MIC [5]
370 ± 20 ([2]) M^-1s^-1: k inact/K i (A. baumannii PBP3 Q488K; average ± SD)
16 µg/mL: MIC ([2]; Acinetobacter, read-out: MIC Min) | MIC ([4]; isolate ARC6644 (IHMA 1420327), Mexico, UTI, 2016, read-out: MIC)
> 64 µg/mL: MIC50 ([2]; Acinetobacter) | MIC90 ([2]; Acinetobacter) | MIC ([2]; Acinetobacter, read-out: MIC Max) | MIC ([3]; isolate ARC6949 (IHMA 1898982), Romania, RTI, 2018, read-out: MIC) | MIC ([3]; isolate ARC6951 (IHMA 1776233), Philippines, RTI, 2018, read-out: MIC) | MIC ([3]; isolate ARC6952 (IHMA 1899008), Romania, RTI, 2018, read-out: MIC) | MIC ([4]; isolate ARC6645 (IHMA 1435703), France, UTI, 2016, read-out: MIC) | MIC ([4]; isolate ARC6647 (IHMA 1386786), Argentina, RTI, 2016, read-out: MIC) | MIC ([4]; isolate ARC6648 (IHMA 1407634), Spain, RTI, 2016, read-out: MIC) | MIC ([4]; isolate ARC6801 (IHMA 1662094), Thailand, RTI, 2017, read-out: MIC) | MIC ([4]; isolate ARC6809 (IHMA 1699528), Guatemala, RTI, 2017, read-out: MIC) | MIC ([4]; isolate ARC6810 (IHMA 1699548), Guatemala, RTI, 2017, read-out: MIC) | MIC ([4]; isolate ARC6813 (IHMA 1699543), Guatemala, UTI, 2017, read-out: MIC) | MIC ([4]; isolate ARC6814 (IHMA 1699512), Guatemala, RTI, 2017, read-out: MIC) | MIC ([4]; isolate ARC6815 (IHMA 1699513), Guatemala, RTI, 2017, read-out: MIC) | MIC ([4]; isolate ARC6816 (IHMA 1699521), Guatemala, RTI, 2017, read-out: MIC) | MIC ([4]; isolate ARC6817 (IHMA 1699523), Guatemala, RTI, 2017, read-out: MIC) | MIC ([4]; isolate ARC6818 (IHMA 1683261), Thailand, RTI, 2017, read-out: MIC) | MIC ([4]; isolate ARC6819 (IHMA 1683267), Thailand, RTI, 2017, read-out: MIC) | MIC ([4]; isolate ARC6821 (IHMA 1699517), Guatemala, RTI, 2017, read-out: MIC) | MIC ([4]; isolate ARC6950 (IHMA 1820064), Israel, RTI, 2018, read-out: MIC) | MIC ([4]; isolate ARC6954 (IHMA 1838192), Guatemala, SSSI, 2018, read-out: MIC) | MIC ([4]; isolate ARC7008 (IHMA 2009813), Thailand, BSI, 2019, read-out: MIC) | MIC ([4]; isolate ARC7009 (IHMA 2043611), United States, UTI, 2019, read-out: MIC) | MIC ([4]; isolate ARC7010 (IHMA 2043398), United States, RTI, 2019, read-out: MIC) | MIC ([4]; isolate ARC7011 (IHMA 2104553), Germany, RTI, 2019, read-out: MIC) | MIC ([4]; isolate ARC7012 (IHMA 2010001), Thailand, RTI, 2019, read-out: MIC) | MIC ([4]; isolate ARC7013 (IHMA 1962831), Argentina, RTI, 2019, read-out: MIC) | MIC ([4]; isolate ARC7016 (IHMA 2148441), Brazil, BSI, 2019, read-out: MIC) | MIC ([4]; isolate ARC7017 (IHMA 2148446), Brazil, BSI, 2019, read-out: MIC) | MIC ([4]; isolate ARC7018 (IHMA 2045454), Guatemala, IAI, 2019, read-out: MIC) | MIC ([4]; isolate ARC7019 (IHMA 2114463), Thailand, RTI, 2019, read-out: MIC) | MIC ([4]; isolate ARC7026 (IHMA 2104494), Guatemala, BSI, 2019, read-out: MIC) | MIC ([4]; isolate ARC7082 (IHMA 2160640), Belgium, BSI, 2020, read-out: MIC) | MIC ([4]; isolate ARC7084 (IHMA 2189596), Germany, RTI, 2020, read-out: MIC) | MIC ([4]; isolate ARC7085 (IHMA 2205747), Guatemala, IAI, 2020, read-out: MIC) | MIC ([4]; isolate ARC7086 (IHMA 2207563), Israel, RTI, 2020, read-out: MIC) | MIC ([4]; isolate ARC7088 (IHMA 2215554), Turkey, BSI, 2020, read-out: MIC) | MIC ([4]; isolate ARC7090 (IHMA 2244410), Poland, RTI, 2020, read-out: MIC) | MIC ([4]; isolate ARC7091 (IHMA 2244564), Australia, RTI, 2020, read-out: MIC) | MIC ([4]; isolate ARC7092 (IHMA 2258772), United States, BSI, 2020, read-out: MIC) | MIC ([4]; isolate ARC7093 (IHMA 2258783), United States, RTI, 2020, read-out: MIC) | MIC ([4]; isolate ARC7156 (IHMA 2455450), Greece, RTI, 2021, read-out: MIC) | MIC ([4]; isolate ARC7158 (IHMA 2523738), Italy, BSI, 2021, read-out: MIC) | MIC ([4]; isolate ARC7159 (IHMA 2456229), Malaysia, RTI, 2021, read-out: MIC) | MIC ([4]; isolate ARC7160 (IHMA 2458626), Thailand, RTI, 2021, read-out: MIC) | MIC ([4]; isolate ARC7161 (IHMA 2429252), Ukraine, RTI, 2021, read-out: MIC) | MIC ([4]; isolate ARC7162 (IHMA 2411847), United States, BSI, 2021, read-out: MIC) | MIC ([4]; isolate ARC7163 (IHMA 2477704), United States, BSI, 2021, read-out: MIC)
8.8 ± 0.7 ([3]) M^-1s^-1: k inact/K i (A. baumannii PBP3 S395F)
